Laboratory results reported in publication PMC12915096, “AI‐Driven Acceleration of Fluorescence Probe Discovery” (Advanced Science, 2025).

Experiments:
tau aggregates [1] = target: T1, tau aggregates (Homo sapiens, UniProt P10636); assay: Dissociation constant measurement by fluorescence titration; format: binding; settings: tau aggregates titrated with probe, 37°C 1 h
T1 construct: purchased QYAOBIO
Procedure: The human recombinant tau protein (1 mg, QYAOBIO) was dissolved in PBS containing 110 µM heparin sodium to a final concentration of 55 µM. The solution was shake vigorously (100 rpm, Crystal IS‐RDV1) at 37°C for 72 h. Similarly, the human recombinant TDP‐43 protein (0.9 mg, Sangon Biotech) was dissolved in 1 mL Tris buffer (50 mM Tris, 300 mM NaCl, 10% Glycerol, pH 8.0) and was shake vigorously (200 rpm, Crystal IS‐RDV1) at 37°C for 48 h. Aggregates formation was monitored and verified using ThT fluorescence assay. The resulting aggregates was divided into aliquots and stored at −20°C before use.
To 1 µM protein solution in PBS containing 10% DMSO, different concentrations of probe was added (final concentration 0, 1, 2, 5, 8, 10, 20, 50, 80, 100, 200, 500, 800, and 1000 nM). The mixture was dispensed into 96‐well plates and incubated at 37°C for 1 h. The fluorescence intensity of the samples was recorded at maximum emission wavelength of probe by using a microplate reader (PerkinElmer, VICTOR Nivo^TM). Dose‐ response curves were generated by plotting fluorescence intensity against probe concentration, and equilibrium dissociation constants were calculated via nonlinear regression analysis in GraphPad Prism.

[2] = target: tau aggregates in AD brain sections (Homo sapiens, UniProt P10636); assay: Pathological staining, colocalization with anti-tau antibody
Procedure: (§1) Human brain tissues of AD or ALS patients and human neuroblastoma tissues were immersed in xylene three times for 5 min to remove paraffin, followed by two 10 min washes with a series of diluted alcohols (100, 90%, 70%, and 50% ethanol in dd water, v/v). Following PBS washing, heat‐mediated antigen retrieval was per‐ formed in 10 mM citrate buffer (pH 9.0) using a temperature‐gradient protocol: samples were gradually heated to boiling point through sequential low‐to‐high intensity thermal exposure (total 15 min duration), followed by natural cooling to ambient temperature. […] To avoid the fluorescence overlap between antibody staining and probe labeling, specific secondary antibodies were selected. […]
(§2) The fluorescence images of tissues were acquired by a scanning microscope (KF‐FL‐020, KFBIO).
(§3) All experiments were conducted over 3–5 independent experiments, and error bars represent the S.E.M across these runs. […] Statistical analysis was performed using GraphPad Prism 8.3.0, with significance determined by one‐way ANOVA followed by Tukey's or Dunnett's post hoc tests. […] Colocalization analysis was performed using the Pearson's correlation coefficient (PCC) calculated via ImageJ software.

[3] = Photophysical property characterization (absorption/emission spectra, quantum yield); format: physicochemical; settings: for λAbs b, spectra assays data / λEm b, spectra assays data / ε: acetonitrile (MeCN); for λAbs b, spectra assays data / λEm b, spectra assays data: 10 µM, Extended Data Table 1; for ε: in M-1·cm-1 (unit assumed)
Procedure: For absorption and emission spectra measurements, the molecules were diluted to 10 µM in various solvents, including EtOH, DMSO, MeCN, H2O, and MeOH. Prior to analysis, the prepared samples were equilibrated at 25°C for 5 min to ensure consistent conditions. Subsequently, their absorption and emission spectra were measured. The absolute fluorescence quantum yield of these probes was measured using the FLS1000 Photoluminescence Spectrometer (Edinburgh Instruments Ltd.).

[4] = Photostability evaluation under continuous excitation; format: physicochemical; settings: 3 h illumination, PBS with 10% DMSO
Procedure: For photostability evaluation, PE859, 859‐1, or 859‐1 were diluted to 10 µM in PBS containing 10% DMSO. The solutions were loaded into a fluorescence spectrometer and the fluorescent intensity at maximum emission wavelength was recorded under continuous excitation for 180 min.

[5] = Selectivity evaluation (fluorescence response to non-target analytes); settings: probe 1 µM, analytes 2 µM, 60 min
Procedure: For selectivity evaluation, the probes were diluted to a final concentration of 1 µM and treated with 2 µM of various analytes. After 60 min of incubation at room temperature, fluorescence intensity was recorded at the specific excitation and emission wavelengths for each probe. The maximum emission wavelength intensity was plotted against the respective analytes.

tau aggregates [6] = target: T1, tau aggregates; assay: Fluorescence turn-on response / spectral assay with tau aggregates; format: binding
Procedure: (§4) To evaluate the fluorescence turn‐on responses to targets, protein (2 µM) were incubated with probe solutions (2 µM, PBS containing 10% DMSO) for 60 min at room temperature. For probe B3, specific experiments involved co‐incubation of 5 µM B3 with 10 µM TDP‐43 aggregates for 60 min.

TDP-43 aggregates = target: T2, TDP-43 aggregates (Homo sapiens, UniProt Q13148); assay: Fluorescence turn-on response / spectral assay with TDP-43 aggregates; format: binding
T2 construct: purchased Sangon Biotech
Procedure: as §4

[7] = target: T3, TDP-43 aggregates in ALS brain sections (Homo sapiens, UniProt Q13148); assay: Pathological staining, colocalization with anti-TDP-43 antibody; settings: brain sections from an ALS patient
T3 construct: from tissue; host or cells: paraffin sections of human ALS patient brain
Procedure: as §1, §2, §3

tau = settings: previous reports; ref [36], [37], [38]; cited from earlier work
[8] = tested on: SU-DHL-6 lymphoma xenografts; assay: Tumor model ex vivo fluorescence imaging; format: in vivo, mice; settings: 10 mg/kg i.v., 4 h post-injection
Procedure: SU-DHL-6 cells were suspended in 100 μL of 50% Matrigel / PBS mixture. Hun dred microliters of SU-DHL-6 cell suspensions, corresponding to 1.8 × 10^6 cells per mouse, were subcutaneously injected into the left flank region of NSFG mice (female, aged 8-10 weeks). The mice were monitored for tumor formation. […] Mice were sacrificed after 4 h and tissues (heart, liver, spleen, lung, kidney, and tumor) were obtained. The fluorescence signals in tissues were recorded using the […] imaging system.

[9] = target: T4, BCL-2 in U2932 and SU-DHL-6 cells (Homo sapiens, UniProt P10415); assay: Cell imaging with anti-BCL-2 co-staining; format: cell-based; settings: U2932 and SU-DHL-6, 5 µM obatoclax
T4 construct: endogenous in cells; host or cells: U2932 and SU-DHL-6
Procedure: Cells of the logarithmic growth phase were taken and transferred them to centrifuge tubes (5 × 10^4 cells/mL). After centrifugation, the culture medium was discarded. Cells were washed once with PBS, centrifuged, and the supernatant aspirated. One milliliter of ice methanol was added, followed by gentle resuspension and fixation for 30 min. After centrifugation, the supernatant was discarded, and cells were washed twice with PBS. Subsequently, 500 µL of 5% BSA blocking solution was added, and cells were gently resuspended before transfer to a 35‐mm confocal dish for sealing and incubation at room temperature for 1 h. The cell suspension was then added into a centrifuge tube, centrifuged to remove blocking solution, and resuspended in 500 µL of primary antibody solution (Proteintech, 12789‐1‐AP, 1:500). Cells were transferred to a confocal dish and incubated overnight at 4°C. After centrifugation to remove primary antibody, cells were washed twice with PBS. Next, 500 µL of secondary antibody (Beyotime, A0468, 1:500) was added, followed by incubation at room temperature for 1 h. Following centrifugation, the cells were washed twice with PBS and stained with 500 µL of DAPI solution (Beyotime, C1006) for 10 min at room temperature. […] After centrifugation, cells were washed twice with PBS, resuspended in 1 mL PBS, transferred to a confocal dish, and imaged with a laser confocal microscope.

BCL-2 [10] = target: T5, BCL-2 (Homo sapiens, UniProt P10415); settings: previous reports; ref [36], [37], [38]; cited from earlier work
[11] = target: T6, BCL-2 in neuroblastoma tumor tissue sections (Homo sapiens, UniProt P10415); assay: Pathological staining, colocalization with anti-BCL-2 antibody
T6 construct: from tissue; host or cells: human neuroblastoma tissue sections
Procedure: as §1, §2, §3

BCL-2 [12] = target: T5, BCL-2; assay: Fluorescence turn-on response / spectral assay with BCL-2; format: binding
Procedure: as §4

T5 sequence (P10415 whole entry, species assumed): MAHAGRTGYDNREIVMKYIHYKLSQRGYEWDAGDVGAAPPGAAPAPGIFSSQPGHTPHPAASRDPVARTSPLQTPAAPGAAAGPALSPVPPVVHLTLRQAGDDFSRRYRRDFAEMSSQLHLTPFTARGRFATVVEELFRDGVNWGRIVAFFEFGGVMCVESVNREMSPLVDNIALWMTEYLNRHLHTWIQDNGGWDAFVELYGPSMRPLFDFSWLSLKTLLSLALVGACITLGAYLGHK
T1 sequence (P10636 1-441 isoform P10636-8): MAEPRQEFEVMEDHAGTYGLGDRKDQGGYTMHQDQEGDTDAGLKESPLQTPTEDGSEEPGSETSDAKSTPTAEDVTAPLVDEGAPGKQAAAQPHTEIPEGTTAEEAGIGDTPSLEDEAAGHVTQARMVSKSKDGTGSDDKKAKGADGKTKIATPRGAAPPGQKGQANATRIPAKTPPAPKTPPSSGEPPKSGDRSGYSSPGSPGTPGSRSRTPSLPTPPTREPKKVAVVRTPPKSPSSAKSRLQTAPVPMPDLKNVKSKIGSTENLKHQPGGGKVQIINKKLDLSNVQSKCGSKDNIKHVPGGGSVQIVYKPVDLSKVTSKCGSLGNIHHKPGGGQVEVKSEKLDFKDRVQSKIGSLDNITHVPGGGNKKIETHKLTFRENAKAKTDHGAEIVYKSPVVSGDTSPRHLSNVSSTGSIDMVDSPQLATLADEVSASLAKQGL
Chain of tau aggregates in AD brain sections (P10636 623-695 limits assumed): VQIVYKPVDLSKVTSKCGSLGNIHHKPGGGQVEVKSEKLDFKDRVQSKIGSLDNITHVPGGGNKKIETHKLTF
T2 sequence (Q13148 whole entry): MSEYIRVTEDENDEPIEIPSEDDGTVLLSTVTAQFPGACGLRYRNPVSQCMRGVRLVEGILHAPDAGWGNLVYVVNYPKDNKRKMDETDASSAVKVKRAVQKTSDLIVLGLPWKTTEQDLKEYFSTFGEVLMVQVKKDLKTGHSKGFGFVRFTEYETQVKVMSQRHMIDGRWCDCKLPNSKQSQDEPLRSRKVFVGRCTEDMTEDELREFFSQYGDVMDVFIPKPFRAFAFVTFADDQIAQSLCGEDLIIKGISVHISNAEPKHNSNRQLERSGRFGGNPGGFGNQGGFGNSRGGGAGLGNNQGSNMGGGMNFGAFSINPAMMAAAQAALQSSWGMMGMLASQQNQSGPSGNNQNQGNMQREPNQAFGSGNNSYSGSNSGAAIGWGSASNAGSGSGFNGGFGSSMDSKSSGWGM
T6 sequence (P10415 whole entry): as the sequence (P10415 whole entry, species assumed) above
T4 sequence (P10415 whole entry): as the sequence (P10415 whole entry, species assumed) above
T3 sequence (Q13148 whole entry): as the sequence (Q13148 whole entry) above

Row | SMILES | Pearson Correlation Coefficient (PCC) with anti-tau antibody staining [2] | λAbs ([3]; DMSO) | λEm ([3]; DMSO) | λAbs ([3]; EtOH, Extended Data Table 5) | λEm ([3]; EtOH, Extended Data Table 5) | λAbs ([3]; H2O, Extended Data Table 5) | Quantum yield experimental ([3]; MeCN) | log10ε experimental ([3]; MeCN) | λAbs ([3]; MeCN, Extended Data Table 5) | λEm ([3]; MeCN, Extended Data Table 5) | λAbs ([3]; MeOH, Extended Data Table 5) | λEm ([3]; MeOH, Extended Data Table 5) | Fluorescence turn-on response to tau aggregates (tau aggregates [6]) | λAbs b, spectra assays data [3] | λEm b, spectra assays data [3] | ε [3] | further results
1 | COc1cc(OCc2ccccn2)ccc1/C=C/C1=[O+][B-](F)(F)OC(/C=C/c2ccc3cc[nH]c3c2)=C1 [859-1] | 0.95 | 539 nm | 610 nm | 513 nm | 588 nm | 510 nm | 0.0063 | 4.9784 | 514 nm | 594 nm | 514 nm | 595 nm | substantially increased fluorescence intensity | – | – | – | Kd (tau aggregates [1]): 217 nM; Emission redshift compared to PE859 ([3]; MeCN): 192 nm; Fluorescence intensity variation under continuous illumination [4]: 152%; Fluorescence response to non-target analytes (selectivity) [5]: minimal response to other analytes; Emission redshift when incubated with tau aggregates (tau aggregates [6]; probe 2 µM, tau aggregates 4 µM): 6 nm
2 | Cc1ccc(Cl)cc1NC(=O)c1cc2c(=O)n3cccc(C)c3nc2n1C [B3] | – | – | – | – | – | – | 0.2891 | 4.2923 | – | – | – | – | – | 370 nm | 443 nm | 19600 | Blue shift of emission upon interaction with TDP-43 aggregates (TDP-43 aggregates): 30 nm; Fluorescence turn-on response to TDP-43 aggregates (TDP-43 aggregates): most significant fluorescence enhancement; PCC with anti-TDP-43 antibody staining [7]: 0.95
3 | Cn1c(C(=O)Nc2ccc(OC(F)(F)F)cc2)cc2c(=O)n3ccccc3nc21 [B5] | – | – | – | – | – | – | – | – | – | – | – | – | – | 382 nm | 450 nm | 19800 | –
4 | Cc1ccc(-n2c(/C=C\c3ccc(F)c(F)c3)nc3ccccc3c2=O)c(C)c1 [B6] | – | – | – | – | – | – | – | – | – | – | – | – | – | 330 nm | 450 nm | 20200 | –
5 | COc1cc(OCc2ccccn2)ccc1/C=C/c1cc(/C=C/c2ccc3cc[nH]c3c2)[nH]n1 [PE859] | 0.85 | 343 nm | 408 nm | 335 nm | 397 nm | 352 nm | 0.1223 | 4.9675 | 338 nm | 402 nm | 337 nm | 410 nm | most significant fluorescence enhancement | 335 nm | – | 92780 | IC50 (tau): 660 nM; λEm ([3]; H2O, Extended Data Table 5): 422 nm; Blue shift in emission maximum upon binding to tau aggregates (tau aggregates [6]): 10 nm
6 | COC1=CC(c2cc3ccccc3[nH]2)=N/C1=C\c1[nH]c(C)cc1C [obatoclax] | – | – | – | – | – | – | 0.0069 | 4.5902 | – | – | – | – | – | 480 nm | 540 nm | 38920 | Accumulation in tumors versus other organs [8]: higher accumulation in tumors compared to other organs; Detection of BCL-2 in overexpressing cell lines [9]: effectively detected; Ki (BCL-2 [10]): 220 nM; PCC with anti-BCL-2 antibody staining [11]: 0.80; Blue shift of emission in the presence of BCL-2 (BCL-2 [12]): 7 nm; Fluorescence turn-on response to BCL-2 (BCL-2 [12]): most significant fluorescence enhancement
